According to the supplement of paper PMC11061612:

How the values were obtained:
[1] = tested on: SHP-77 (Small Cell Lung Carcinoma); experiment: combination Emax (second highest fraction inhibited in the dose matrix, 72 h); higher = more inhibition; extreme values may be limits of the assay
In short: (§1)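 Cell lines grown in DMEM/F12 or RPMI with 10% FBS were plated in 1536-well plates and held 24 hours at 37°C, 5% CO2 before 72 hours of exposure to two-drug dose matrices, with DMSO typically at 0.2%. CellTiter-Glo 2.0 luminescence gave viability, which was converted to inhibition. Vehicle wells were set to 0 and blank wells to 1. Combination Emax is the second-highest inhibition in the matrix, and Bliss excess is the observed combination effect minus the expected EA + EB − EA·EB, where EA and EB are the single-agent effects.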

[2] = tested on: MFE-280 (Endometrial Carcinoma); experiment: as above
In short: as §1

[3] = tested on: PSN1 (Pancreatic Carcinoma); experiment: as above
In short: as §1

[4] = tested on: PANC-03-27 (Pancreatic Carcinoma); experiment: as above
In short: as §1

[5] = tested on: RERF-LC-Sq1 (Squamous Cell Lung Carcinoma); experiment: as above
In short: as §1

[6] = tested on: NCI-H446 (Small Cell Lung Carcinoma); experiment: as above
In short: as §1

[7] = tested on: SU-DHL-10 (B-Cell Non-Hodgkin's Lymphoma); experiment: as above
In short: as §1

[8] = tested on: COLO-680N (Esophageal Squamous Cell Carcinoma); experiment: as above
In short: as §1

WM278 (Melanoma) = experiment: as above
In short: as §1

GB-1 (Glioblastoma) = experiment: as above
In short: as §1

[9] = tested on: NCI-H23 (Lung Adenocarcinoma); experiment: as above
In short: as §1

[10] = tested on: REH (B-Lymphoblastic Leukemia); experiment: as above
In short: as §1

[11] = tested on: OPM-2 (Plasma Cell Myeloma); experiment: as above
In short: as §1

[12] = tested on: NCI-H2342 (Lung Adenocarcinoma); experiment: as above
In short: as §1

IST-MES1 (Mesothelioma) = experiment: as above
In short: as §1

[13] = tested on: FADU (Head and Neck Carcinoma); experiment: as above
In short: as §1

[14] = tested on: PC-3_[JPC-3] (Lung Adenocarcinoma); experiment: as above
In short: as §1

[15] = tested on: LB996-RCC (Kidney Carcinoma); experiment: Bliss excess, mean over the matrix (fraction); higher = more synergy
In short: as §1

A2058 (Melanoma) = experiment: as above
In short: as §1

[16] = tested on: CAL-120 (Breast Carcinoma); experiment: as above
In short: as §1
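Throughout, for Bliss excess, mean over the matrix: after 72 h of two-drug dosing.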

Structure (SMILES) | combination Emax [1] | combination Emax [2] | combination Emax [3] | combination Emax [4] | combination Emax [5] | combination Emax [6] | combination Emax [7] | combination Emax [8] | combination Emax (WM278 (Melanoma)) | combination Emax (GB-1 (Glioblastoma)) | combination Emax [9] | combination Emax [10] | combination Emax [11] | combination Emax [12] | combination Emax (IST-MES1 (Mesothelioma)) | combination Emax [13] | combination Emax [14] | Bliss excess [15] | Bliss excess (A2058 (Melanoma)) | Bliss excess [16]
COc1nnc2ccc(N3CCC(c4ccc(OCCN5CCN(C)C(=O)[C@H]5C)cc4)CC3)nn12 [AZD5153] + C[C@@H]1COCCN1C2=NC(=NC(=C2)C3(CC3)[S@](=N)(=O)C)C4=C5C=CNC5=NC=C4 [AZD6738] (first compound max 1 µM, 7x7, partner max 10 µM) | 0.821 | 0.425 | 0.586 | 0.489 | 0.801 | 0.951 | 1 | 0.383 | 0.671 | 0.678 | 1 | 0.96 | 1 | 0.673 | 0.644 | 0.642 | 0.5 | -0.0142 | 0.0671 | 0.0309
COc1nnc2ccc(N3CCC(c4ccc(OCCN5CCN(C)C(=O)[C@H]5C)cc4)CC3)nn12 [AZD5153] + Cc1c2c(nn1C)CSCc1cc(n(C)n1)CSc1cc(c3ccccc3c1)OCCCc1c(C(=O)O)n(C)c3c-2c(Cl)ccc13 [AZD5991] (first compound max 1 µM, 7x7, partner max 1 µM) | 0.544 | 0.45 | 0.506 | 0.252 | 0.602 | 0.998 | 1 | 0.37 | 0.484 | 0.288 | 0.997 | 0.965 | 1 | 0.563 | 0.96 | 0.975 | 0.39 | 0.0015 | 0.067 | 0.0048
COc1nnc2ccc(N3CCC(c4ccc(OCCN5CCN(C)C(=O)[C@H]5C)cc4)CC3)nn12 [AZD5153] + Cn1cnc2c(F)c(Nc3ccc(Br)cc3Cl)c(C(=O)NOCCO)cc21 [Selumetinib] (first compound max 1 µM, 7x7, partner max 10 µM) | 0.424 | 0.361 | 0.818 | 0.398 | 0.79 | 0.91 | 1 | 0.378 | 0.799 | 0.288 | 0.852 | 0.469 | 1 | 0.347 | 0.641 | 0.629 | 0.525 | -0.0728 | 0.0358 | 0.0386
Cc1c2c(nn1C)CSCc1cc(n(C)n1)CSc1cc(c3ccccc3c1)OCCCc1c(C(=O)O)n(C)c3c-2c(Cl)ccc13 [AZD5991] + C1CN(CCC1(C(=O)N[C@@H](CCO)C2=CC=C(C=C2)Cl)N)C3=NC=NC4=C3C=CN4 [Capivasertib] (first compound max 1 µM, 7x7, partner max 3 µM) | 0.263 | 0.461 | 0.241 | 0.167 | 0.757 | 0.838 | 1 | 0.139 | 0.266 | 0.195 | 0.899 | 0.849 | 1 | 0.298 | 0.138 | 1 | 0.203 | 0.0013 | 0.0972 | 0.0424
Cc1c2c(nn1C)CSCc1cc(n(C)n1)CSc1cc(c3ccccc3c1)OCCCc1c(C(=O)O)n(C)c3c-2c(Cl)ccc13 [AZD5991] + C=CCn1c(=O)c2cnc(Nc3ccc(N4CCN(C)CC4)cc3)nc2n1-c1cccc(C(C)(C)O)n1 [AZD1775] (first compound max 1 µM, partner max 1 µM) | 0.461 | 0.469 | 0.475 | 0.926 | 0.785 | 0.941 | 1 | 0.287 | 0.463 | 0.293 | 0.966 | 0.877 | 1 | 0.306 | 0.31 | 0.963 | 0.466 | -0.008 | 0.0959 | -0.0143
Cc1c2c(nn1C)CSCc1cc(n(C)n1)CSc1cc(c3ccccc3c1)OCCCc1c(C(=O)O)n(C)c3c-2c(Cl)ccc13 [AZD5991] + CC1(C)CCC(CN2CCN(c3ccc(C(=O)NS(=O)(=O)c4ccc(NCC5CCOCC5)c([N+](=O)[O-])c4)c(Oc4cnc5[nH]ccc5c4)c3)CC2)=C(c2ccc(Cl)cc2)C1 [Venetoclax] (first compound max 1 µM, 7x7, partner max 1 µM) | 0.753 | 0.193 | 0.145 | 0.188 | 0.282 | 0.86 | 1 | 0.0971 | 0.291 | 0.133 | 0.899 | 1 | 1 | 0.262 | 0.116 | 0.946 | 0.254 | -0.0251 | 0.0967 | -0.0284
Cc1c2c(nn1C)CSCc1cc(n(C)n1)CSc1cc(c3ccccc3c1)OCCCc1c(C(=O)O)n(C)c3c-2c(Cl)ccc13 [AZD5991] + CCN(CCO)CCCOc1ccc2c(Nc3cc(CC(=O)Nc4cccc(F)c4)[nH]n3)ncnc2c1 [AZD2811] (first compound max 1 µM, 7x7, partner max 1 µM) | 0.289 | 0.482 | 0.319 | 0.517 | 0.622 | 0.926 | 1 | 0.211 | 0.396 | 0.264 | 0.926 | 0.931 | 1 | 0.427 | 0.266 | 0.986 | 0.274 | -0.0388 | 0.114 | -0.0077
Cc1c2c(nn1C)CSCc1cc(n(C)n1)CSc1cc(c3ccccc3c1)OCCCc1c(C(=O)O)n(C)c3c-2c(Cl)ccc13 [AZD5991] + CN(C)CCCOc1ccc(-c2ccc3ncc4c(c3c2)n(C2CCOCC2)c(=O)n4C)cn1 [AZD0156] (first compound max 1 µM, 7x7, partner max 1 µM) | 0.284 | 0.38 | 0.397 | 0.254 | 0.364 | 0.67 | 1 | 0.219 | 0.248 | 0.186 | 0.913 | 0.694 | 1 | 0.278 | 0.191 | 0.972 | 0.279 | -0.0569 | -0.0048 | -0.036
Cc1c2c(nn1C)CSCc1cc(n(C)n1)CSc1cc(c3ccccc3c1)OCCCc1c(C(=O)O)n(C)c3c-2c(Cl)ccc13 [AZD5991] + C[C@@H]1COCCN1C2=NC(=NC(=C2)C3(CC3)[S@](=N)(=O)C)C4=C5C=CNC5=NC=C4 [AZD6738] (first compound max 1 µM, 7x7, partner max 10 µM) | 0.594 | 0.384 | 0.488 | 0.819 | 0.853 | 0.948 | 1 | 0.324 | 0.562 | 0.489 | 0.977 | 0.945 | 1 | 0.333 | 0.285 | 0.985 | 0.37 | 0.0301 | 0.0756 | 0.0621
Cc1c2c(nn1C)CSCc1cc(n(C)n1)CSc1cc(c3ccccc3c1)OCCCc1c(C(=O)O)n(C)c3c-2c(Cl)ccc13 [AZD5991] + C[C@@H](Nc1cc(F)cc(F)c1)c1cc(C(=O)N(C)C)cc2c(=O)cc(N3CCOCC3)oc12 [AZD8186] (first compound max 1 µM, 7x7, partner max 3 µM) | 0.289 | 0.465 | 0.375 | 0.354 | 0.228 | 0.882 | 1 | 0.215 | 0.365 | 0.219 | 0.896 | 0.776 | 1 | 0.294 | 0.241 | 0.968 | 0.348 | 0.0208 | 0.119 | -0.0318
Cc1c2c(nn1C)CSCc1cc(n(C)n1)CSc1cc(c3ccccc3c1)OCCCc1c(C(=O)O)n(C)c3c-2c(Cl)ccc13 [AZD5991] + Cc1cc2ncnn2cc1Nc1ncc2c(n1)n(C1CCOCC1)c(=O)n2C [AZD7648] (first compound max 1 µM, 7x7, partner max 10 µM) | 0.263 | 0.437 | 0.406 | 0.261 | 0.37 | 0.648 | 1 | 0.19 | 0.285 | 0.264 | 0.934 | 0.8 | 1 | 0.317 | 0.249 | 0.963 | 0.289 | -0.0662 | -0.067 | -0.0059
Cc1c2c(nn1C)CSCc1cc(n(C)n1)CSc1cc(c3ccccc3c1)OCCCc1c(C(=O)O)n(C)c3c-2c(Cl)ccc13 [AZD5991] + Cn1cnc2c(F)c(Nc3ccc(Br)cc3Cl)c(C(=O)NOCCO)cc21 [Selumetinib] (first compound max 1 µM, 7x7, partner max 3 µM) | 0.598 | 0.278 | 0.67 | 0.597 | 0.479 | 0.563 | 1 | 0.236 | 0.648 | 0.174 | 0.934 | 0.732 | 1 | 0.341 | 0.257 | 1 | 0.269 | 0.0053 | 0.213 | -0.0105
C[C@@H]1COCCN1c1cc(C2([S@](C)(=N)=O)CC2)nc(-c2ccnc3[nH]ccc23)n1 [AZD6738] + O=C(c1cc(Cc2n[nH]c(=O)c3ccccc23)ccc1F)N1CCN(C(=O)C2CC2)CC1 [Olaparib] (first compound max 10 µM, 7x7, partner max 10 µM) | 0.754 | 0.403 | 0.5 | 0.829 | 0.75 | 0.811 | 0.944 | 0.392 | 0.233 | 0.478 | 0.753 | 0.917 | 0.75 | 0.208 | 0.353 | 0.775 | 0.359 | 0.0143 | 0.0033 | 0.0364
